This experiment deals with Schistosoma mansoni. The experiment is described as follows: In vitro activity screen on S. mansoni schistosomula at 10 uM. Compound-induced effects were assessed by quantifying larva motility and phenotype using Roboworm. Format: functional, organism-based. More on the design: test concentration 10 uM, temperature 37 degree C, time incubation 72 h. To be noted: Puerto Rican.

SMILES strings stand for the structures. Activity calls are given as the source filed them. No rule for the calls is given here.

For `COc1ccc(CNc2nc([C@H]3CC[C@H](C(=O)O)CC3)nc3sc4ccccc4c23)cc1Cl`, the In vitro activity entry is “inactive”. With `CCCc1cc(C)c(C(=O)N=C(N)N)cc1S(C)(=O)=O` the entry was “inactive”; with `CCc1ccccc1N/C=C1\C(=O)N(c2ccc(S(=O)(=O)O)cc2)N=C1C`, “inactive”; with `CC1=C(C(=O)N2CCc3ccc(C(F)(F)F)cc3C2)C2(CCN(C(C)C)CC2)OC1=O`, “inactive”. Regarding `COc1cc(C(=O)Nc2nc(Nc3cccc(C(F)(F)F)c3)n(C)n2)ccc1-n1cnc(C)c1`, the In vitro activity result was “inactive”.

As for `CC1=C(C(=O)N2CCc3ccc(C(F)(F)F)cc3C2)C2(CCN(C(C)(C)C)CC2)OC1=O`, the In vitro activity result is “inactive”. Consider `CCCc1nn(C)c2c(=O)[nH]c(-c3cc(C(=O)N=C(N)N)ccc3OCC)nc12`, for which the In vitro activity result was “inactive”.

Consider `CN(C)c1cccc2c(S(=O)(=O)Nc3ccc4nsnc4c3)cccc12`, for which the In vitro activity entry was “inactive”. Next, `COc1cc(C(=O)NCc2cn(Cc3ccc(Cl)c(Cl)c3)nn2)ccc1-c1ccnc(C)c1`: “inactive”; `CCc1cc(Oc2cccnc2)c(S(C)(=O)=O)cc1C(=O)N=C(N)N`: “inactive”; `O=C(CCN1CCCCC1)c1ccc2[nH]c(=O)sc2c1`: “inactive”. Next, `Cc1ccccc1-c1ccc(-c2nc(-c3ccc(CN(C)CCC(=O)O)c(F)c3)no2)cc1OCC1CC1`: “inactive”. With `CCSc1cc(C)c(C(=O)N=C(N)N)cc1S(C)(=O)=O` the entry was “inactive”; with `COc1ccc(OC)c(-c2cn3cc(C(=O)NCCc4cccc(OC)c4OC)ccc3n2)c1`, “inactive”; with `Cc1ccc(CNc2nc(N3CCC(C(=O)O)CC3)nc3sc4c(c23)CCCC4)cc1`, “inactive”. Take `COc1cc(Nc2nccn3nc(Nc4cccc(C(F)(F)F)c4)nc23)cc(OC)c1`: the In vitro activity result is “inactive”. Next, `CCCCc1nc2ccn(CC(=O)N(C)C)c(=O)c2n1Cc1ccc(-c2ccccc2-c2nnn[nH]2)cc1`: “inactive”.

Consider `COc1ccc(CNc2nc(CCCCC(=O)O)nc3sc4c(c23)CCCC4)cc1Cl`, for which the In vitro activity entry was “inactive”. With `O=C(O)C1CCN(c2nc(NCc3ccc4c(c3)OCO4)c3c4c(sc3n2)CCCC4)CC1` the entry was “inactive”; with `CCCc1nn(C)c2c(=O)[nH]c(-c3cc(S(=O)(=O)Oc4nc(C)ccc4C#N)ccc3OCC)nc12`, “inactive”; with `COc1ccc(CNc2nc(CCCC(=O)O)nc3oc4c(c23)CCCC4)cc1Cl`, “inactive”. In the case of `O=C(O)c1ccc(C(=O)Nc2[nH]c3ccccc3c2C(=O)NCc2ccc3c(c2)OCO3)cc1`, the In vitro activity entry is “inactive”. Next, `CC1=C(C(=O)N2CCc3ccc(C(F)(F)F)cc3C2)C2(CCN(C3CCC(O)CC3)CC2)OC1=O` (centres undefined): “inactive”; `CCc1cc2c(NCc3ccc(OC)c(Cl)c3)nc(-c3ccc(C(=O)O)cc3)nc2s1`: “inactive”. With `Cc1cc(C2=CCCC2)c(S(C)(=O)=O)cc1C(=O)N=C(N)N` the entry was “inactive”. Take `CCNC1=N[C@@H]2[C@@H](O)[C@H](O)[C@@H](Cn3cc(COc4ccc(C)cc4)nn3)O[C@@H]2S1`: the In vitro activity entry is “inactive”. Regarding `COc1cc(OC)c(CCNC(=O)c2cn3cc(-c4cc(OCC(O)CO)ccc4OC)nc3s2)c(OC)c1` (centres undefined), the In vitro activity entry is “inactive”. Next, `CCOc1cc(C2=NN(C(=O)c3ccc(NC(=O)c4cccnc4)cc3)CCC2)ccc1OC`: “inactive”. With `CC1=C(C(=O)N2CCN(c3cccc(C(F)(F)F)c3)CC2)C2(CCN(CCc3ccc(F)cc3)CC2)OC1=O` the entry was “inactive”; with `CC1(C)Oc2ccc(C#N)cc2[C@@H](n2ccccc2=O)[C@@H]1O`, “inactive”; with `CO[C@@H]1COCC[C@@H]1N1CCC2(CC1)OC(=O)C(C)=C2C(=O)N1CCc2ccc(C(F)(F)F)cc2C1`, “inactive”. Next, `Cc1cc(C)c(S(C)(=O)=O)cc1C(=O)N=C(N)N`: “inactive”; `CCCCc1nc2ccn(Cc3ccccc3)c(=O)c2n1Cc1ccc(-c2ccccc2-c2nn[nH]n2)cc1`: “inactive”; `CCOC(=O)CC1=NN(c2ccc(C(=O)O)cc2)C(=O)/C1=C\Nc1ccccc1CC`: “inactive”. With `CSc1cc(C)c(C(=O)N=C(N)N)cc1S(C)(=O)=O`, the In vitro activity entry was “inactive”. `CCCc1nn(C)c2c(=O)[nH]c(-c3cc(S(=O)(=O)n4ccc(O)cc4=O)ccc3OCC)nc12`: the In vitro activity result is “inactive”. Consider `COCc1cc(-c2nc(-c3ccc(CN(C)CC(=O)O)cc3)no2)ccc1-c1ccccc1C`, for which the In vitro activity result was “inactive”. In the case of `COc1cc([S+]([O-])C(C)C)ccc1-c1nc2ccncc2[nH]1` (centres undefined), the In vitro activity result is “inactive”. `COc1ccc(OC)c(Nc2nc3ccccc3nc2NS(=O)(=O)Cc2cccnc2)c1`: the In vitro activity result was “inactive”. For `O=C(O)[C@H]1CC[C@H](c2nc(NCc3ccc4c(c3)OCO4)c3c4c(sc3n2)CCCC4)CC1`, the In vitro activity result is “inactive”. Take `CC1=C(C(=O)N2CCN(c3cccc(C(F)(F)F)c3)CC2)C2(CCN(CCc3ccccc3)CC2)OC1=O`: the In vitro activity result was “inactive”. In the case of `Cc1cc(-c2ccc[nH]2)c(S(C)(=O)=O)cc1C(=O)N=C(N)N`, the In vitro activity result was “inactive”.

Take `CCCc1nn(C)c2c(NCc3ccc(OC)c(Cl)c3)nc(CCCCC(=O)NS(C)(=O)=O)nc12`: the In vitro activity entry was “inactive”. For `Cc1cc(Nc2ccccn2)c(S(C)(=O)=O)cc1C(=O)N=C(N)N`, the In vitro activity result is “inactive”.

As for `O=C(O)c1cn(Cc2ccc(-n3cccn3)cc2)c2c(F)ccc(F)c2c1=O`, the In vitro activity result was “inactive”. With `CCS(=O)(=O)c1cc(C)c(C(=O)N=C(N)N)cc1S(C)(=O)=O`, the In vitro activity result was “inactive”. Next, `Cc1cc(-c2cccs2)c(S(C)(=O)=O)cc1C(=O)N=C(N)N`: “inactive”; `CCCc1nn(C)c2c(=O)[nH]c(-c3cc(S(=O)(=O)Oc4ccc(=O)[nH]n4)ccc3OCC)nc12`: “inactive”. Next, `Oc1ccc2[nH]cc(CCCCN3CC=C(c4ccccc4)CC3)c2c1`: “inactive”; `CC1=C(C(=O)N2CCc3ccc(C(F)(F)F)cc3C2)C2(CCN(C3CCOCC3)CC2)OC1=O`: “inactive”; `CC(Sc1nc(-c2ccc(Cl)cc2)c(-c2ccc(Cl)cc2)o1)C(=O)NCC(=O)O` (centres undefined): “inactive”. Next, `O=C(O)c1ccc(-c2nc(NCc3ccc4c(c3)OCO4)c3c4c(sc3n2)CCCC4)cc1`: “inactive”; `COCc1cc(-c2nc(-c3ccc(CN(C)CC(=O)O)c(F)c3)no2)ccc1-c1ccccc1C`: “inactive”; `CC1=C(C(=O)N2CCc3ncc(C(F)(F)F)cc3C2)C2(CCN(CC3CCOC3)CC2)OC1=O` (centres undefined): “inactive”. As to `CC1=C(C(=O)N2CCc3ccc(C(F)(F)F)cc3C2)C2(CCN(CC3CCOC3)CC2)OC1=O` (centres undefined), the In vitro activity entry is “inactive”. Turning to `O=C(c1cc(-c2ccccn2)nc2ccc(Br)cc12)N1CCCC1`, the In vitro activity result was “inactive”. Next, `O=C(c1cc2c(s1)CC(C(=O)O)C2)c1ccccc1Cl` (centres undefined): “inactive”.

As to `COc1cc(SC(C)C#N)ccc1-c1nc2ccncc2[nH]1` (centres undefined), the In vitro activity result is “inactive”.

Turning to `CCOC(=O)c1ccc(C2=CSC3=Nc4ccccc4CCN23)cc1`, the In vitro activity result is “inactive”.

`COc1cc(NC(=O)c2cn(Cc3ccc(Cl)cc3)nn2)ccc1-n1cnc(C)c1`: the In vitro activity entry is “inactive”. As to `COCCCN1CCC2(CC1)OC(=O)C(C)=C2C(=O)N1CCc2ccc(C(F)(F)F)cc2C1`, the In vitro activity result was “inactive”. Next, `CC1=C(C(=O)N2Cc3cc(C(F)(F)F)ccc3C(C)(C)C2)C2(CCN(C3CCOCC3)CC2)OC1=O`: “inactive”. As to `COc1cc([S+]([O-])Cc2ccccc2)ccc1-c1nc2ccncc2[nH]1` (centres undefined), the In vitro activity entry was “inactive”. With `COc1cc(C(=O)Nc2cn(Cc3ccc4ccccc4c3)nn2)ccc1-n1cnc(C)c1` the entry was “inactive”. On to `COc1cc(C(=O)Nc2cn(Cc3ccc(Cl)cc3)nn2)ccc1-n1cnc(C)c1`, for which the In vitro activity result is “inactive”. With `CCC(CC)N1CCC2(CC1)OC(=O)C(C)=C2C(=O)N1CCc2ncc(C(F)(F)F)cc2C1` the entry was “inactive”. As for `Cc1cc(Oc2ccccc2)c(S(C)(=O)=O)cc1C(=O)N=C(N)N`, the In vitro activity result was “inactive”. On to `Cc1cc(C2CCCC2)c(S(C)(=O)=O)cc1C(=O)N=C(N)N`, for which the In vitro activity result was “inactive”. With `CCC(C)Oc1ccc(-c2nc(-c3cc(F)cc(CN(C)CC(=O)O)c3)no2)cc1COC` (centres undefined) the entry was “inactive”.

With `O=C(O)c1ccc(C(=O)Nc2sc3c(c2C(=O)NCc2ccc4c(c2)OCO4)CCCC3)cc1`, the In vitro activity entry is “inactive”. As for `Cc1c(O)nc(N)nc1-c1cc2ccccc2o1`, the In vitro activity result is “inactive”. On to `COc1ccccc1-n1c(=S)[nH]c2scc(C)c2c1=O`, for which the In vitro activity result is “inactive”. As to `CC1=C(C(=O)N2CCc3ccc(C(F)(F)F)cc3C2)C2(CCN(C3CCOC(C)(C)C3)CC2)OC1=O` (centres undefined), the In vitro activity result is “inactive”. With `CCCc1nn(C)c2c(=O)[nH]c(-c3cc(S(=O)(=O)Oc4ccc(=O)n(C)n4)ccc3OCC)nc12` the entry was “inactive”; with `Cc1cc(C(C)C)c(S(C)(=O)=O)cc1C(=O)N=C(N)N`, “inactive”; with `CC1(C)Oc2ccc(C#N)cc2[C@@H](n2ccccc2=O)[C@]1(C)O`, “inactive”.

On to `Cc1cc(-c2ccccc2)c(S(C)(=O)=O)cc1C(=O)N=C(N)N`, for which the In vitro activity result was “inactive”. Next, `Cc1cc(Cl)c(-n2cccc2)cc1C(=O)N=C(N)N`: “inactive”. On to `CCOc1cc(CCC(=O)NC[C@H]2S[C@@H](c3ccc(C#Cc4ccccc4)cc3)N(c3cccc(C(N)=O)c3)C2=O)ccc1OC`, for which the In vitro activity entry was “inactive”.

For the origin of these results see ChEMBL document CHEMBL5441142, “Probing the Merck KGaA Open Global health library for novel starting points for anti-schistosomal drug discovery” (2024).
